Experimental data published in patent publication US20100010082A1, “FORMULATIONS FOR TREATING EYE DISORDERS” (Aspreva International Ltd., priority 2008, published 2010).
Read-outs that look alike come from different tables or passages of the source. Marks after values point to notes of the source that are not given here.

Tests used:
[1] = CellCept® label / Myfortic® label; cited from earlier work
[2] = system: Scopolamine Induced Dry Eye in C57BL/6 Mice; test: Scopolamine induced dry eye model; format: in vivo, Mus musculus; conditions: by the end of the study (Day 13)
Protocol: This dry eye model was based on that described in De Paiva et al., 2006, Investigative Opthalmology & Visual Science 47(7):2847-2856, incorporated herein by reference. The study consisted of seven groups of 10 female C57BL/6 mice each. Starting on Day 0, mice of Groups 1-6 were treated four times-daily (QID) with topical bilateral ocular (OU) administration of control or test articles at intervals of at least two hours. […] Mice in Group 7 served as untreated controls. On Day 3, scopolamine patches were placed on the tails of the mice and replaced every other day (Q2D) thereafter. From Days 3-12, mice were maintained in an environment with high-volume air draft (see Environmental stress section, below). […]
For each day of administration, mice were briefly restrained. […] Following patch application, animals were monitored for any adverse reactions, including the condition of the tail and Vetwrap®. […]
Slit Lamp Corneal Examinations. Both eyes of each animal were evaluated via a slit lamp ophthalmic examination using topically-applied fluorescein. Fluorescein dye was used to examine the surface of the cornea and scored.
Pathology. […] A board-certified veterinary pathologist evaluated slides via light microscopy. […]
Eyes were serially sectioned and examined. The representative corneas were scored based upon a 0-4 scale, with 0 being normal, 1 being minimal, 2 being mild, 3 being moderate, and 4 being severe. […]

[3] = system: Con-A-induced dry eye in NZW rabbits; test: Con A induced dry eye model, Tear Break-up Test (TBUT); format: in vivo, Oryctolagus cuniculus
[4] = system: Bovine Ocular Melanin Induced Uveitis in Lewis Rats
[5] = Days 17/18, pooled average (+/−SEM) of both eyes
[6] = Days 19/20, pooled average (+/−SEM) of both eyes
[7] = Days 26/27, pooled average (+/−SEM) of both eyes
[8] = Days 28/29, pooled average (+/−SEM) of both eyes
[9] = Days −2/−1 (before immunization and dosing)

For `COc1c(C)c2c(c(O)c1C/C=C(\C)CCC(=O)OCCN1CCOCC1)C(=O)OC2` [MMF, mycophenolate mofetil], the “solubility (in words)” value [1] is listed as “only slightly soluble in water”.
For `COc1c(C)c2c(c(O)c1C/C=C(\C)CCC(=O)[O-])C(=O)OC2.[Na+]` [NaMPA, sodium mycophenolic acid], the “solubility (in words)” value [1] is listed as “highly soluble in aqueous solutions at physiological pH”.
In the case of `C[C@@H]1C[C@H]2[C@@H]3CCC4=CC(=O)C=C[C@]4(C)[C@@]3(F)[C@@H](O)C[C@]2(C)[C@@]1(O)C(=O)CO` [dexamethasone], the “weight loss relative to other groups” value [2] is reported as “approx. 20%”, the “TBUT, post-hoc Tukey P vs. Vehicle” value ([3]; D6 (before Con A injection on Day 8)) is reported as under 0.01 and the “TBUT, post-hoc Tukey P vs. Vehicle” value ([3]; D9) is reported as under 0.05. For the same compound, the “TBUT, post-hoc Tukey P vs. Vehicle” value ([3]; D10) was under 0.01, the “TBUT, post-hoc Tukey P vs. Vehicle” value ([3]; D14) was under 0.001 and the “TBUT, post-hoc Tukey P vs. Vehicle” value ([3]; D15) was under 0.01. The “TBUT, post-hoc Tukey P vs. Vehicle” value ([3]; D16) was under 0.001, the “TBUT, post-hoc Tukey P vs. Vehicle” value ([3]; D17) was under 0.001 and the “Hyperemia Scores (pooled)” value ([4]; Days 14/15, pooled average (+/−SEM) of both eyes) was 2.0 ±. The “Hyperemia Scores (pooled)” value [4, 5] was 2.2 ±, the “Opacity Scores (pooled)” value [4, 5] was 1.1 ± and the “Hyperemia Scores (pooled)” value [4, 6] was 3.0 ± 0.0. For the same compound, the “Opacity Scores (pooled)” value [4, 6] was 2.0 ± 0.0, the “Hyperemia Scores (pooled)” value [4, 7] was 1.5 ± 0.5 and the “Opacity Scores (pooled)” value [4, 7] was 1.3 ± 0.5. For the same compound, the “Hyperemia Scores (pooled)” value [4, 8] was 0.0*, the “Opacity Scores (pooled)” value [4, 8] was 0.0* and the “Hyperemia Scores (pooled)” value [4, 9] was 0. For the same compound, the “Opacity Scores (pooled)” value [4, 9] was 0 and the “weight loss during study” value ([4]; rat, in vivo) was “significant drug-related weight loss”.
